Data published in PubChem BioAssay AID256 (DTP/NCI, 2004).
Several values for one entry are separate records, joined by “and”; a condition that tells them apart may be missing. Identical values can stand only once. Toxic doses and inconclusive results are not listed.

System: CD2F1 mice, L1210 leukemia ip, survival T/C
Assay: NCI In Vivo Anticancer Drug Screen. Data for tumor model L1210 Leukemia (intraperitoneal) in CD2F1 (CDF1) mice
Conditions: higher = longer survival
How it was run: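 Implant tumor; dose compound or vehicle; measure endpoint in both groups; report treated divided by control.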

[1] = endpoint: mean survival time, dose: 100.0 mg/kg/injection, schedule: Q04DX003 (ip), vehicle: saline
[2] = endpoint: mean survival time, dose: 200.0 mg/kg/injection, schedule: Q04DX003 (ip), vehicle: saline
[3] = endpoint: mean survival time, dose: 400.0 mg/kg/injection, schedule: Q04DX003 (ip), vehicle: saline

In the case of COc1ccc2[nH]c3c(c2c1)CCNC3CC(C)CCC=C(C)C (configuration not stated), the T/C (endpoint: mean survival time, dose: 6.25 mg/kg/injection, schedule: Q01DX009 (ip), vehicle: Klucel (hydroxypropylcellulose) (HPC)) is reported as 100 % of control and 110 % of control, the T/C (endpoint: mean survival time, dose: 12.5 mg/kg/injection, schedule: Q01DX009 (ip), vehicle: Klucel (hydroxypropylcellulose) (HPC)) is reported as 98 % of control and 102 % of control and the T/C (endpoint: mean survival time, dose: 25.0 mg/kg/injection, schedule: Q01DX009 (ip), vehicle: Klucel (hydroxypropylcellulose) (HPC)) is reported as 97 % of control and 101 % of control. For the same molecule, the T/C (endpoint: mean survival time, dose: 50.0 mg/kg/injection, schedule: Q01DX009 (ip), vehicle: Klucel (hydroxypropylcellulose) (HPC)) was 100 % of control and 103 % of control, the T/C (endpoint: mean survival time, dose: 100.0 mg/kg/injection, schedule: Q01DX009 (ip), vehicle: Klucel (hydroxypropylcellulose) (HPC)) was 86 % of control and 100 % of control and the T/C (endpoint: mean survival time, dose: 200.0 mg/kg/injection, schedule: Q01DX009 (ip), vehicle: Klucel (hydroxypropylcellulose) (HPC)) was 108 % of control.

O=NN(CCCCl)C(=O)Nc1ccccc1 was tested, and the T/C (endpoint: mean survival time, dose: 100.0 mg/kg/injection, schedule: Q01DX001 (ip), vehicle: carboxymethylcellulose (CMC)) was 96 % of control and the T/C (endpoint: mean survival time, dose: 200.0 mg/kg/injection, schedule: Q01DX001 (ip), vehicle: carboxymethylcellulose (CMC)) was 119 % of control.

For O=C(O)Cc1ccccc1C(=O)O, the T/C (endpoint: mean survival time, dose: 100.0 mg/kg/injection, schedule: Q04DX003 (ip), vehicle: Klucel (hydroxypropylcellulose) (HPC)) was 96 % of control, the T/C (endpoint: mean survival time, dose: 200.0 mg/kg/injection, schedule: Q04DX003 (ip), vehicle: Klucel (hydroxypropylcellulose) (HPC)) was 104 % of control and the T/C (endpoint: mean survival time, dose: 400.0 mg/kg/injection, schedule: Q04DX003 (ip), vehicle: Klucel (hydroxypropylcellulose) (HPC)) was 96 % of control.

With COC1=CCC23C(=O)C=CC(=O)C2(C1)C(=O)c1ccccc1C3=O (configuration not stated) the T/C (endpoint: median survival time, dose: 3.12 mg/kg/injection, schedule: Q01DX009 (ip), vehicle: saline with Tween-80) was 102 % of control, the T/C (endpoint: median survival time, dose: 6.25 mg/kg/injection, schedule: Q01DX009 (ip), vehicle: saline with Tween-80) was 105 % of control and the T/C (endpoint: median survival time, dose: 12.5 mg/kg/injection, schedule: Q01DX009 (ip), vehicle: saline with Tween-80) was 112 % of control. For the same molecule, the T/C (endpoint: median survival time, dose: 25.0 mg/kg/injection, schedule: Q01DX009 (ip), vehicle: saline with Tween-80) was 104 % of control.

With O=c1nc(N2CCCCC2)ccn1C1OC(CO)C(O)C1O (configuration not stated) the T/C (endpoint: median survival time, dose: 12.5 mg/kg/injection, schedule: Q01DX005 (ip), vehicle: water) was 98 % of control, the T/C (endpoint: median survival time, dose: 25.0 mg/kg/injection, schedule: Q01DX005 (ip), vehicle: water) was 106 % of control and the T/C (endpoint: median survival time, dose: 50.0 mg/kg/injection, schedule: Q01DX005 (ip), vehicle: water) was 106 % of control. The T/C (endpoint: median survival time, dose: 100.0 mg/kg/injection, schedule: Q01DX005 (ip), vehicle: water) was 112 % of control and the T/C (endpoint: median survival time, dose: 200.0 mg/kg/injection, schedule: Q01DX005 (ip), vehicle: water) was 104 % of control.

For Nc1nc(CCCCc2ccccc2)cc(=O)[nH]1, the T/C (endpoint: mean survival time, dose: 100.0 mg/kg/injection, schedule: Q04DX003 (ip), vehicle: saline with Tween-80) was 93 % of control, the T/C (endpoint: mean survival time, dose: 200.0 mg/kg/injection, schedule: Q04DX003 (ip), vehicle: saline with Tween-80) was 89 % of control and the T/C (endpoint: mean survival time, dose: 400.0 mg/kg/injection, schedule: Q04DX003 (ip), vehicle: saline with Tween-80) was 91 % of control.

In the case of CC(=O)Nc1nnn(C)n1, the T/C [1] is reported as 103 % of control, the T/C [2] is reported as 100 % of control and the T/C [3] is reported as 101 % of control.

In the case of CC1CCC(NC(=O)NCCF)CC1 (configuration not stated), the T/C (endpoint: mean survival time, dose: 75.0 mg/kg/injection, schedule: Q01DX001 (ip), vehicle: other) is reported as 100 % of control and the T/C (endpoint: mean survival time, dose: 150.0 mg/kg/injection, schedule: Q01DX001 (ip), vehicle: other) is reported as 115 % of control.

For ClCC[N+]12CC[N+](CCCl)(CC1)C2, the T/C (endpoint: mean survival time, dose: 6.25 mg/kg/injection, schedule: Q01DX009 (ip), vehicle: water) was 95 % of control and 106 % of control and 109 % of control, the T/C (endpoint: mean survival time, dose: 12.5 mg/kg/injection, schedule: Q01DX009 (ip), vehicle: saline) was 106 % of control [middle of 4 runs] and the T/C (endpoint: mean survival time, dose: 12.5 mg/kg/injection, schedule: Q01DX009 (ip), vehicle: water) was 117 % of control and 104 % of control and 108 % of control. For the same molecule, the T/C (endpoint: mean survival time, dose: 25.0 mg/kg/injection, schedule: Q01DX009 (ip), vehicle: saline) was 110 % of control [middle of 4 runs], the T/C (endpoint: mean survival time, dose: 25.0 mg/kg/injection, schedule: Q01DX009 (ip), vehicle: water) was 115 % of control and 106 % of control and 109 % of control and the T/C (endpoint: mean survival time, dose: 50.0 mg/kg/injection, schedule: Q01DX009 (ip), vehicle: saline) was 117 % of control and 102 % of control and 109 % of control. For the same molecule, the T/C (endpoint: mean survival time, dose: 50.0 mg/kg/injection, schedule: Q01DX009 (ip), vehicle: water) was 113 % of control and 119 % of control and 120 % of control, the T/C (endpoint: mean survival time, dose: 50.0 mg/kg/injection, schedule: Q04DX003 (ip), vehicle: saline) was 102 % of control and the T/C (endpoint: mean survival time, dose: 66.0 mg/kg/injection, schedule: Q01DX009 (ip), vehicle: saline) was 154 % of control. The T/C (endpoint: mean survival time, dose: 100.0 mg/kg/injection, schedule: Q01DX009 (ip), vehicle: saline) was 116 % of control and 94 % of control, the T/C (endpoint: mean survival time, dose: 100.0 mg/kg/injection, schedule: Q01DX009 (ip), vehicle: water) was 111 % of control and the T/C [1] was 102 % of control. The T/C (endpoint: mean survival time, dose: 150.0 mg/kg/injection, schedule: Q01DX009 (ip), vehicle: saline) was 190 % of control, the T/C (endpoint: mean survival time, dose: 150.0 mg/kg/injection, schedule: Q04DX003 (ip), vehicle: saline) was 118 % of control and the T/C (endpoint: mean survival time, dose: 200.0 mg/kg/injection, schedule: Q01DX009 (ip), vehicle: saline) was 108 % of control [middle of 5 runs]. The T/C [2] was 123 % of control, the T/C (endpoint: mean survival time, dose: 300.0 mg/kg/injection, schedule: Q04DX003 (ip), vehicle: saline) was 119 % of control and the T/C (endpoint: mean survival time, dose: 400.0 mg/kg/injection, schedule: Q01DX009 (ip), vehicle: saline) was 121 % of control and 105 % of control. For the same molecule, the T/C [3] was 178 % of control.
